Results on 18 compounds are retold here after article PMC7224224, “Synthesis of diindolylmethane (DIM) bearing thiadiazole derivatives as a potent urease inhibitor” (Scientific Reports, 2020).

In one data set the target is jack bean urease (Canavalia ensiformis, UniProt P07374). The data set can be described thus: biochemical. Here is the method: Urease is an enzyme (jack bean urease) that catalyzes the hydrolysis of urea into carbon dioxide and ammonia. The production of ammonia was measured by the indophenol method and used to determine the urease inhibitory activity[57],[58]. The percentage remaining activity was calculated from the formula % Remaining Activity = [(ODtest)/(ODcontrol) × 100]. Thiourea was used as a standard inhibitor. To calculate IC50 values, different concentrations of synthesized compounds and standards were assayed at the same reaction conditions.
Sequence of jack bean urease (P07374 whole entry, looked up): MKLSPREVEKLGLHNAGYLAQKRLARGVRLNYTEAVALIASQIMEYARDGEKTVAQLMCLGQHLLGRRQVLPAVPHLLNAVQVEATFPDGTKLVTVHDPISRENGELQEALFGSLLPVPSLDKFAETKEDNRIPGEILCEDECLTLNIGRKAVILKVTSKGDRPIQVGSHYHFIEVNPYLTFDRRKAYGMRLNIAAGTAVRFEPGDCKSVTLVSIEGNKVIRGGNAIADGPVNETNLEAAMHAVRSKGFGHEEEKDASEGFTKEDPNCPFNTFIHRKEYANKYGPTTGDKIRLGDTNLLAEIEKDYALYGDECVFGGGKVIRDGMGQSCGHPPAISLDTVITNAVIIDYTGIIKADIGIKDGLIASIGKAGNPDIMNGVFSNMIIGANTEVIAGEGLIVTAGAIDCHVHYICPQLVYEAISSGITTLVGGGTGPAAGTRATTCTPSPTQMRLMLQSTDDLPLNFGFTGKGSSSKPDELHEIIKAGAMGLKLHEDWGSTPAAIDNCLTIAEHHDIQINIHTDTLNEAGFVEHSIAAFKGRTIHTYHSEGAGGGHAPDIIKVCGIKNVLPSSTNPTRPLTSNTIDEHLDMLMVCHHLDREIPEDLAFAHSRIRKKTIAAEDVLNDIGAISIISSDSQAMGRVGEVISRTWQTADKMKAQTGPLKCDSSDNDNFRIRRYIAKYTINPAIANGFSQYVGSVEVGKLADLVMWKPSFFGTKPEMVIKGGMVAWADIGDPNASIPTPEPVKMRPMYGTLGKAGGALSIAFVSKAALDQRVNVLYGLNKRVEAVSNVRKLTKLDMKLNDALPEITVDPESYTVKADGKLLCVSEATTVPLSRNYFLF

As usually defined, the IC50 is the midpoint of a concentration-inhibition curve. Lower therefore signals greater potency in that assay. The melting point is the temperature, or range, at which the solid turns liquid.

Turning to `O=[N+]([O-])c1ccc(S(=O)(=O)Nc2nnc(-c3ccc(C(c4c[nH]c5ccc(Br)cc45)c4c[nH]c5ccc(Br)cc45)cc3)s2)cc1Cl` [Compound 9, N-(5-(4-(bis(5-bromo-1H-indol-3-yl)methyl)phenyl)-1,3,4-thiadiazol-2-yl)-3-chloro-4-nitrobenzenesulfonamide], the melting point was in the range of 318 to 319 °C. For the same compound, the half-maximal inhibitory concentration (IC50) against jack bean urease stood at 1.1 ± 0.01 µM.

As for `O=[N+]([O-])c1ccc(S(=O)(=O)Nc2nnc(-c3ccc(C(c4c[nH]c5ccc(Br)cc45)c4c[nH]c5ccc(Br)cc45)cc3)s2)cc1` [Compound 2, N-(5-(4-(bis(5-bromo-1H-indol-3-yl)methyl)phenyl)-1,3,4-thiadiazol-2-yl)-4-nitrobenzenesulfonamide], the melting point fell in the range of 312 to 313 °C. This compound also came in with an IC50 on jack bean urease of 1.8 ± 0.01 µM. On the same counts, the results for `Cc1ccc(S(=O)(=O)Nc2nnc(-c3ccc(C(c4c[nH]c5ccc(Br)cc45)c4c[nH]c5ccc(Br)cc45)cc3)s2)cc1` [Compound 18, N-(5-(4-(bis(5-bromo-1H-indol-3-yl)methyl)phenyl)-1,3,4-thiadiazol-2-yl)-4-methylbenzenesulfonamide] are 285 to 286 °C and 20.4 ± 1.2 µM. Turning to `O=[N+]([O-])c1ccc(S(=O)(=O)Nc2nnc(-c3ccc(C(c4c[nH]c5ccc(Br)cc45)c4c[nH]c5ccc(Br)cc45)cc3)s2)c([N+](=O)[O-])c1` [Compound 8, N-(5-(4-(bis(5-bromo-1H-indol-3-yl)methyl)phenyl)-1,3,4-thiadiazol-2-yl)-2,4-dinitrobenzenesulfonamide], the IC50 at jack bean urease was found to be 0.5 ± 0.01 µM. Turning to `Cc1cccc(S(=O)(=O)Nc2nnc(-c3ccc(C(c4c[nH]c5ccc(Br)cc45)c4c[nH]c5ccc(Br)cc45)cc3)s2)c1` [Compound 17, N-(5-(4-(bis(5-bromo-1H-indol-3-yl)methyl)phenyl)-1,3,4-thiadiazol-2-yl)-3-methylbenzenesulfonamide], the melting point fell in the range of 289 to 290 °C. On jack bean urease, half-maximal inhibition (IC50) required 28.6 ± 1.2 µM. For `O=S(=O)(Nc1nnc(-c2ccc(C(c3c[nH]c4ccc(Br)cc34)c3c[nH]c4ccc(Br)cc34)cc2)s1)c1ccc(Cl)c(Cl)c1` [Compound 10, N-(5-(4-(bis(5-bromo-1H-indol-3-yl)methyl)phenyl)-1,3,4-thiadiazol-2-yl)-3,4-dichlorobenzenesulfonamide], the melting point is 302 to 303 °C. Further, 1.6 ± 0.01 µM corresponded to half-maximal inhibition against jack bean urease (IC50). Regarding `O=S(=O)(Nc1nnc(-c2ccc(C(c3c[nH]c4ccc(Br)cc34)c3c[nH]c4ccc(Br)cc34)cc2)s1)c1ccc(Cl)cc1Cl` [Compound 7, N-(5-(4-(bis(5-bromo-1H-indol-3-yl)methyl)phenyl)-1,3,4-thiadiazol-2-yl)-2,4-dichlorobenzenesulfonamide], half-maximal inhibition against jack bean urease (IC50) required 2.3 ± 0.1 µM. For `O=[N+]([O-])c1ccccc1S(=O)(=O)Nc1nnc(-c2ccc(C(c3c[nH]c4ccc(Br)cc34)c3c[nH]c4ccc(Br)cc34)cc2)s1` [Compound 3, N-(5-(4-(bis(5-bromo-1H-indol-3-yl)methyl)phenyl)-1,3,4-thiadiazol-2-yl)-2-nitrobenzenesulfonamide], the melting point lay in the range of 314 to 315 °C. Besides, on jack bean urease, inhibition was half-maximal at 1.1 ± 0.01 µM (IC50).

As to `COc1ccc(Cl)cc1S(=O)(=O)Nc1nnc(-c2ccc(C(c3c[nH]c4ccc(Br)cc34)c3c[nH]c4ccc(Br)cc34)cc2)s1` [Compound 5, N-(5-(4-(bis(5-bromo-1H-indol-3-yl)methyl)phenyl)-1,3,4-thiadiazol-2-yl)-5-chloro-2-methoxybenzenesulfonamide], the melting point was 315 to 316 °C. On jack bean urease, this compound had an IC50 of 7.3 ± 0.1 µM. The matching figures for `Cc1ccc(Cl)c(S(=O)(=O)Nc2nnc(-c3ccc(C(c4c[nH]c5ccc(Br)cc45)c4c[nH]c5ccc(Br)cc45)cc3)s2)c1` [Compound 12, N-(5-(4-(bis(5-bromo-1H-indol-3-yl)methyl)phenyl)-1,3,4-thiadiazol-2-yl)-2-chloro-5-methylbenzenesulfonamide]: 301 to 302 °C and 8.5 ± 0.3 µM. With `COc1ccc([N+](=O)[O-])c(S(=O)(=O)Nc2nnc(-c3ccc(C(c4c[nH]c5ccc(Br)cc45)c4c[nH]c5ccc(Br)cc45)cc3)s2)c1` [Compound 15, N-(5-(4-(bis(5-bromo-1H-indol-3-yl)methyl)phenyl)-1,3,4-thiadiazol-2-yl)-5-methoxy-2-nitrobenzenesulfonamide], the melting point lay in the range of 308 to 309 °C. The same compound registered a half-inhibitory concentration (IC50) against jack bean urease of 3.9 ± 0.1 µM. `Cc1ccccc1S(=O)(=O)Nc1nnc(-c2ccc(C(c3c[nH]c4ccc(Br)cc34)c3c[nH]c4ccc(Br)cc34)cc2)s1` [Compound 16, N-(5-(4-(bis(5-bromo-1H-indol-3-yl)methyl)phenyl)-1,3,4-thiadiazol-2-yl)-2-methylbenzenesulfonamide] displayed a melting point of 291 to 292 °C. Moreover, half-maximal inhibition against jack bean urease (IC50) was put at 23.8 ± 1 µM.

In turn, `O=S(=O)(Nc1nnc(-c2ccc(C(c3c[nH]c4ccc(Br)cc34)c3c[nH]c4ccc(Br)cc34)cc2)s1)c1cc(Cl)c(Cl)cc1Cl` [Compound 6, N-(5-(4-(bis(5-bromo-1H-indol-3-yl)methyl)phenyl)-1,3,4-thiadiazol-2-yl)-2,4,5-trichlorobenzenesulfonamide] came in with a melting point of 299 to 300 °C. Further, the IC50 against jack bean urease was determined as 0.7 ± 0.01 µM. The matching figures for `COc1ccc(Br)c(S(=O)(=O)Nc2nnc(-c3ccc(C(c4c[nH]c5ccc(Br)cc45)c4c[nH]c5ccc(Br)cc45)cc3)s2)c1` [Compound 14, N-(5-(4-(bis(5-bromo-1H-indol-3-yl)methyl)phenyl)-1,3,4-thiadiazol-2-yl)-2-bromo-5-methoxybenzenesulfonamide]: 309 to 310 °C and 19.8 ± 0.8 µM. The matching figures for `Cc1ccc([N+](=O)[O-])c(S(=O)(=O)Nc2nnc(-c3ccc(C(c4c[nH]c5ccc(Br)cc45)c4c[nH]c5ccc(Br)cc45)cc3)s2)c1` [Compound 13, N-(5-(4-(bis(5-bromo-1H-indol-3-yl)methyl)phenyl)-1,3,4-thiadiazol-2-yl)-5 methyl-2-nitrobenzenesulfonamide]: 312 to 313 °C and 5.1 ± 0.1 µM. The compound `COc1ccc(O)c(S(=O)(=O)Nc2nnc(-c3ccc(C(c4c[nH]c5ccc(Br)cc45)c4c[nH]c5ccc(Br)cc45)cc3)s2)c1` [Compound 4, N-(5-(4-(bis(5-bromo-1H-indol-3-yl)methyl)phenyl)-1,3,4-thiadiazol-2-yl)-2-hydroxy-5-methoxybenzenesulfonamide] returned a half-inhibitory concentration (IC50) against jack bean urease of 2.2 ± 0.1 µM. `O=S(=O)(Nc1nnc(-c2ccc(C(c3c[nH]c4ccc(Br)cc34)c3c[nH]c4ccc(Br)cc34)cc2)s1)c1ccccc1` [Compound 1, N-(5-(4-(bis(5-bromo-1H-indol-3-yl)methyl)phenyl)-1,3,4-thiadiazol-2-yl)benzenesulfonamide] gave a melting point of 301 to 302 °C. At jack bean urease, this compound showed an IC50 of 13.2 ± 0.3 µM. On the same counts, the results for `O=S(=O)(Nc1nnc(-c2ccc(C(c3c[nH]c4ccc(Br)cc34)c3c[nH]c4ccc(Br)cc34)cc2)s1)c1ccc2ccccc2c1` [Compound 11, N-(5-(4-(bis(5-bromo-1H-indol-3-yl)methyl)phenyl)-1,3,4-thiadiazol-2-yl)naphthalene-2-sulfonamide] are 313 to 314 °C and 33.2 ± 1.2 µM.
